From patent US12642270B2, “Substituted thiophene carboxamides, thiophene carboxylic acids and derivatives thereof” (Bayer Aktiengesellschaft, priority 2019, dated 2026)

Experiment: Log P by HPLC on reversed phase columns (EEC directive 79/831 Annex V.A8)
Assay type: physicochemical
Conditions: method [a]
Method in brief: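 Values come from retention times calibrated against alkan-2-ones (3–16 carbons) by linear interpolation, using reversed-phase LC-UV per EEC directive 79/831 Annex V.A8. Acetonitrile gradient 10–95% with 0.1% formic acid [a], 0.001 M ammonium acetate [b] or 0.1% phosphoric acid [c]; several values within one method separated by "+".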

| LogP | Structure (SMILES) |
| --- | --- |
| 4.89^[a] | CC(C)OC(=O)C(NC(=O)c1sc(Cl)c(Cl)c1Br)C1CC1 (stereo not drawn) [1.0904] |
| 4.78^[a] | O=C(NC1(C(=O)OCC2CC2)CCC1)c1sc(Cl)c(Cl)c1Br [1.0905] |
| 1.90^[a] | COC(=O)CNC(=O)c1cc(Cl)c(F)s1 [1.0906] |
| 5.20^[a] | CCCCOC(=O)C1(NC(=O)c2sc(Br)c(Br)c2Cl)CCC1 [1.0907] |
| 4.97^[a] | O=C(NC1(C(=O)OC2CCC2)CCC1)c1sc(Br)c(Br)c1Cl [1.0908] |
| 5.00^[a] | O=C(NC1(C(=O)OCc2ccccc2)CCC1)c1sc(Br)c(Br)c1Cl [1.0909] |
| 2.58^[a] | C#CCOC(=O)CNC(=O)c1sc(Cl)c(Cl)c1C#N [1.0910] |
| 2.63^[a] | C#CCOC(=O)CNC(=O)c1sc(C#N)c(Cl)c1Cl [1.0911] |
| 3.00^[a] | C=CCOC(=O)C1(NC(=O)c2sc(C#N)c(Cl)c2Cl)CC1 [1.0912] |
| 2.91^[a] | C=CCOC(=O)C1(NC(=O)c2sc(Cl)c(Cl)c2C#N)CC1 [1.0913] |
| 1.34^[a] | Cc1c(C(=O)NCC(N)=O)sc(C#N)c1Cl [1.0914] |
| 1.38^[a] | Cc1c(C(=O)NCC(N)=O)sc(C#N)c1Br [1.0915] |
| 1.47^[a] | N#Cc1c(C(=O)NCC(N)=O)sc(Cl)c1Cl [1.0916] |
| 4.78^[a] | CCCOC(=O)C1(NC(=O)c2sc(Br)c(Br)c2Cl)CCC1 [1.0917] |
| 5.89^[a] | O=C(NC1(C(=O)OC2CCCCC2)CCC1)c1sc(Br)c(Br)c1Cl [1.0918] |
| 2.80^[a] | NC(=S)C1(NC(=O)c2sc(Br)c(Br)c2Cl)CC1 [1.0919] |
| 2.31^[a] | CNC(=O)C1(NC(=O)c2sc(Br)c(Br)c2Cl)CC1 [1.0920] |
| 4.33^[a] | O=C(NC1(C(=O)OCC2CC2)CCC1)c1sc(Br)c(Br)c1F [1.0924] |
| 4.78^[a] | CC(C)(C)OC(=O)C1(NC(=O)c2sc(Br)c(Br)c2F)CCC1 [1.0925] |
| 4.74^[a] | CCCCOC(=O)C1(NC(=O)c2sc(Br)c(Br)c2F)CCC1 [1.0926] |
| 4.59^[a] | O=C(NC1(C(=O)OCc2ccccc2)CCC1)c1sc(Br)c(Br)c1F [1.0927] |
| 4.30^[a] | CCCOC(=O)C1(NC(=O)c2sc(Br)c(Br)c2F)CCC1 [1.0928] |
| 5.28^[a] | O=C(NC1(C(=O)OC2CCCCC2)CCC1)c1sc(Br)c(Br)c1F [1.0929] |
| 4.47^[a] | O=C(NC1(C(=O)OC2CCC2)CCC1)c1sc(Br)c(Br)c1F [1.0930] |

The remaining lines, values behind:

| Structure (SMILES) | LogP |
| --- | --- |
| COC(=O)C1(NC(=O)c2sc(Br)c(Br)c2Cl)CCC1 [1.0849] | 3.75^[a] |
| N#CCNC(=O)c1sc(Br)c(Br)c1Cl [1.0850] | 2.67^[a] |
| COC(=O)CNC(=S)c1sc(Cl)c(Cl)c1Br [1.0851] | 4.09^[a] |
| COC(=O)CNC(=S)c1sc(Br)c(Br)c1Cl [1.0852] | 4.07^[a] |
| CCOC(=O)C1(NC(=S)c2sc(Cl)c(Br)c2Cl)CCC1 [1.0853] | 5.04^[a] |
| O=C(O)CNC(=S)c1sc(Cl)c(Cl)c1Br [1.0854] | 3.11^[a] |
| C#CCOC(=O)CNC(=O)c1sc(Br)c(Br)c1F [1.0855] | 2.87^[a] |
| O=C(CNC(=O)c1sc(Br)c(Br)c1F)OC1CC1 [1.0856] | 3.02^[a] |
| C=CCOC(=O)CNC(=O)c1sc(Br)c(Br)c1F [1.0857] | 3.13^[a] |
| N#CCCOC(=O)CNC(=O)c1sc(Br)c(Br)c1F [1.0858] | 2.48^[a] |
| O=C(CNC(=O)c1sc(Br)c(Br)c1F)OCC1CC1 [1.0859] | 3.39^[a] |
| CCCCOC(=O)CNC(=O)c1sc(Br)c(Br)c1F [1.0860] | 3.79^[a] |
| O=C(O)CNC(=S)c1sc(Br)c(Br)c1Cl [1.0861] | 3.08^[a] |
| O=C(CNC(=O)c1sc(Br)c(Br)c1F)OC1CCCC1 [1.0862] | 3.84^[a] |
| O=C(CNC(=O)c1sc(Br)c(Br)c1F)Oc1ccccc1 [1.0863] | 3.58^[a] |
| COC(=O)CNC(=S)c1sc(C#N)c(Br)c1C [1.0864] | 2.92^[a] |
| CCOC(=O)C(NC(=S)c1sc(Br)c(Br)c1F)C1CC1 (stereo not drawn) [1.0865] | 4.99^[a] |
| N#CC1(NC(=O)c2sc(Br)c(Br)c2Cl)CCSCC1 [1.0868] | 3.71^[a] |
| N#CC1(NC(=O)c2sc(Br)c(Br)c2F)CCSCC1 [1.0871] | 3.40^[a] |
| CC(C#N)(NC(=O)c1sc(Br)c(Br)c1F)C1CC1 (stereo not drawn) [1.0872] | 3.47^[a] |
| N#CC1(NC(=O)c2sc(Br)c(Br)c2Cl)CCC1 [1.0873] | 3.35^[a] |
| CC(C)C(C#N)NC(=O)c1sc(Br)c(Br)c1Cl (stereo not drawn) [1.0874] | 3.88^[a] |
| O=C(O)CNC(=O)c1sc(Cl)c(Br)c1Cl [1.0875] | 2.18^[a] |
| O=C(O)C(Cc1ccccc1)NC(=S)c1sc(Br)c(Br)c1F (stereo not drawn) [1.0876] | 4.17^[a] |
| CCOC(=O)CNC(=S)c1sc(C#N)c(Br)c1C [1.0877] | 3.30^[a] |
| COC(=O)CNC(=S)c1cc(Br)c(Cl)s1 [1.0878] | 3.35^[a] |

| Structure (SMILES) | LogP |
| --- | --- |
| CCCOC(=O)C1(NC(=O)c2sc(Cl)c(Cl)c2Br)CCC1 [1.0879] | 4.74^[a] |
| O=C(NC1(C(=O)OC2CCCCC2)CCC1)c1sc(Cl)c(Cl)c1Br [1.0880] | 5.89^[a] |
| NC(=S)C1(NC(=O)c2sc(Cl)c(Cl)c2Br)CC1 [1.0881] | 2.77^[a] |
| CNC(=O)C1(NC(=O)c2sc(Cl)c(Cl)c2Br)CC1 [1.0882] | 2.28^[a] |
| O=C(CNC(=O)c1sc(Br)c(Br)c1Cl)OC1CCOCC1 [1.0883] | 3.14^[a] |
| CC(C)(C)OC(=O)C(NC(=O)c1sc(Br)c(Br)c1Cl)C1CC1 (stereo not drawn) [1.0884] | 5.36^[a] |
| O=C(NC(C(=O)OC1CCC1)C1CC1)c1sc(Br)c(Br)c1Cl (stereo not drawn) [1.0885] | 5.08^[a] |
| CC(C)OC(=O)C(NC(=O)c1sc(Br)c(Br)c1Cl)C1CC1 (stereo not drawn) [1.0886] | 4.89^[a] |
| O=C(NC1(C(=O)OCC2CC2)CCC1)c1sc(Br)c(Br)c1Cl [1.0887] | 4.81^[a] |
| O=C(NC1(C(=O)OCc2ccccc2)CCC1)c1sc(Cl)c(Cl)c1Br [1.0888] | 5.00^[a] |
| O=C(NC1(C(=O)OC2CCC2)CCC1)c1sc(Cl)c(Cl)c1Br [1.0889] | 4.93^[a] |
| CCCCOC(=O)C1(NC(=O)c2sc(Cl)c(Cl)c2Br)CCC1 [1.0890] | 5.20^[a] |
| CC(C)(C)OC(=O)C1(NC(=O)c2sc(Cl)c(Cl)c2Br)CCC1 [1.0891] | 5.28^[a] |
| COC(=O)CNC(=O)c1sc(Cl)c(C)c1Cl [1.0892] | 2.64^[a] |
| CCOC(=O)CNC(=O)c1sc(Cl)c(C)c1Cl [1.0893] | 3.07^[a] |
| NC(=O)CNC(=O)c1sc(Br)c(Br)c1F [1.0894] | 1.69^[a] |
| N#CNC(=O)C1(NC(=O)c2sc(Br)c(Br)c2F)CC1 [1.0895] | 2.38^[a] |
| NC(=S)CNC(=O)c1sc(Br)c(Br)c1F [1.0896] | 2.25^[a] |
| COC(=O)C1(NC(=O)c2sc(C)c(Cl)c2Cl)CC1 [1.0897] | 2.67^[a] |
| CC(C)(C)OC(=O)C1(NC(=O)c2sc(Br)c(Br)c2Cl)CC1 [1.0898] | 5.28^[a] |
| CCOC(=O)CNC(=O)c1cc(Cl)c(F)s1 [1.0899] | 2.23^[a] |
| NC(=S)C1(NC(=O)c2sc(Br)c(Br)c2F)CC1 [1.0900] | 2.42^[a] |
| COC(=O)C1(NC(=O)c2cc(Cl)c(F)s2)CC1 [1.0901] | 2.13^[a] |
| CC(C)(C)OC(=O)C(NC(=O)c1sc(Cl)c(Cl)c1Br)C1CC1 (stereo not drawn) [1.0902] | 5.41^[a] |
| O=C(NC(C(=O)OC1CCC1)C1CC1)c1sc(Cl)c(Cl)c1Br (stereo not drawn) [1.0903] | 5.08^[a] |

Same assay, conditions: method marker [a] given with each value; Table 1.1, compounds of formula (I)

| LogP | Structure (SMILES) |
| --- | --- |
| 3.81^[a] | CCOC(=O)CN(C(=O)c1sc(Br)c(Br)c1Cl)C1CC1 [1.0935] |
| 3.80^[a] | CCOC(=O)CN(C(=O)c1sc(Cl)c(Br)c1Cl)C1CC1 [1.0936] |
| 3.81^[a] | CCOC(=O)CN(C(=O)c1sc(Cl)c(Cl)c1Br)C1CC1 [1.0937] |
| 3.64^[a] | CCOC(=O)CN(C(=O)c1sc(Br)c(Br)c1F)C1CC1 [1.0938] |
| 4.64^[a] | COC(=O)C(C)(Cc1ccccc1)NC(=O)c1sc(Br)c(Br)c1F (stereo not drawn) [1.0954] |
| 4.52^[a] | COC(=O)C(Cc1ccc(Cl)cc1)NC(=O)c1sc(Br)c(Br)c1F (stereo not drawn) [1.0955] |
| 3.20^[a] | C#CCOC(=O)CNC(=O)c1sc(Br)c(Br)c1Cl [1.0959] |
| 3.39^[a] | O=C(CNC(=O)c1sc(Br)c(Br)c1Cl)OC1CC1 [1.0960] |
| 3.50^[a] | C=CCOC(=O)CNC(=O)c1sc(Br)c(Br)c1Cl [1.0961] |
| 2.81^[a] | C=CCOC(=O)C1(NC(=O)c2sc(C#N)c(Br)c2C)CC1 [1.0962] |
| 2.61^[a] | C#CCOC(=O)C1(NC(=O)c2sc(C#N)c(Br)c2C)CC1 [1.0963] |
| 2.93^[a] | Cc1c(C(=O)NC2(C(=O)OC(C)C)CC2)sc(C#N)c1Br [1.0964] |
| 3.24^[a] | Cc1c(C(=O)NCC(=O)OC2CCCC2)sc(C#N)c1Br [1.0965] |
| 2.98^[a] | CCCOC(=O)C1(NC(=O)c2sc(C#N)c(Br)c2C)CC1 [1.0966] |
| 3.10^[a] | Cc1c(C(=O)NCC(=O)Oc2ccccc2)sc(C#N)c1Br [1.0967] |
| 3.13^[a] | Cc1c(C(=O)NC2(C(=O)OC3CCC3)CC2)sc(C#N)c1Br [1.0968] |
| 3.36^[a] | CCCCOC(=O)C1(NC(=O)c2sc(C#N)c(Br)c2C)CC1 [1.0969] |
| 3.33^[a] | Cc1c(C(=O)NC2(C(=O)OCC(C)C)CC2)sc(C#N)c1Br [1.0970] |
| 3.28^[a] | Cc1c(C(=O)NC2(C(=O)OC(C)(C)C)CC2)sc(C#N)c1Br [1.0971] |
| 3.23^[a] | CCCCOC(=O)CNC(=O)c1sc(C#N)c(Br)c1C [1.0972] |
| 3.26^[a] | Cc1c(C(=O)NCC(=O)OCc2ccccc2)sc(C#N)c1Br [1.0973] |
| 3.15^[a] | CCOC(=O)C(NC(=O)c1sc(C#N)c(Br)c1C)C1CC1 (stereo not drawn) [1.0974] |
| 3.39^[a] | Cc1c(C(=O)NC2(C(=O)OCc3ccccc3)CC2)sc(C#N)c1Br [1.0975] |
| 2.82^[a] | CNC(=S)C1(NC(=O)c2sc(Br)c(Br)c2F)CC1 [1.0976] |
